Assay results reported in patent US12296053B2, “Nanomaterials comprising triols” (Beam Therapeutics Inc., priority 2022, dated 2025).

Key:
[1] = LNP hydrodynamic diameter and polydispersity index by dynamic light scattering (DLS); format: physicochemical; conditions: for Diameter (nm): hydrodynamic diameter of the LNP preparation with the ionizable lipid; for PDI: polydispersity index of the LNP preparation with the ionizable lipid
Protocol: (§1) A 3:1 ratio of aqueous to organic solvent was maintained during mixing using differential flow rates. After mixing, LNP preparations were collected and diluted in TBS (approximately 7:1 v/v), and further buffer exchange was conducted using dialysis in TBS at 4° C. for 8 to 24 hours against a 20 kDa filter. After this initial dialysis, each individual LNP preparation was characterized via dynamic light scattering (DLS) to measure size and polydispersity. pKa of a subpopulation of LNP preparations was measured via TNS assay.
DLS-LNP preparation hydrodynamic diameter and polydispersity index (PDI) was measured using high throughput dynamic light scattering (DLS) (DynaPro plate reader II, Wyatt). LNP preparations were diluted 1×PBS to an appropriate concentration and analyzed.

[2] = Encapsulation efficiency of LNP preparations (Ribogreen assay; Qubit, unlysed and lysed LNPs); format: physicochemical; conditions: LNP preparation with the ionizable lipid, ABE mRNA:sgRNA 1:1, except 7-1, 7-2, 7-6, 7-10 (unlysed and lysed LNPs, Qubit)
Protocol: (§2) Lipid nanoparticle components were dissolved in 100% ethanol at specified lipid component molar ratios. mRNA encoding an adenine base editor and a chemically-modified sgRNA was dissolved at a mass ratio of 1:1 in 50 mM citrate, pH 4.0, resulting in a concentration of NA cargo of approximately 0.1 mg/mL.
(§3) LNP preparations were formulated with molar ratios of 47.5% Ionizable Lipid: 40% Cholesterol: 2.5% PEG2000-DMG: 10% DSPC total lipid to NA molar ratio of 6 to 12.
(§4) LNP preparations were formed by microfluidic mixing of the lipid and NA solutions using Precision Nanosystems NanoAssemblr Ignite series Instruments, according to the manufacturer's protocol.
With the exception of LNPs comprising ionizable lipids 7-1, 7-2, 7-6, and 7-10, RNA concentration and encapsulation efficiency were determined by Ribogreen assay (BioTek Synergy LX plate reader). For LNPs comprising ionizable lipids 7-1, 7-2, 7-6, and 7-10, RNA concentration was determined by Qubit microRNA kit (for siRNA) or HS RNA kit (for mRNA) per manufacturer's instructions, and encapsulation efficiency was determined by measuring unlysed and lysed LNPs.

ALAS1 target site = assay: Base editing in liver by LNP-delivered ABE mRNA and sgRNA, targeted deep sequencing; format: in vivo; conditions: LNP with the ionizable lipid, ABE mRNA + sgRNA targeting ALAS1 1:1; tail vein injection, Balb/c mice; 0.05 mg/kg; tissues four to six days post-dose
Protocol: as §2, §3, §4, §1
Male Balb/C mice aged approximately 8-12 weeks were used in the experiments described herein. […]
Age-matched mice were also used to administer vehicle (1×TBS) via tail vein injection as a control. Four to six days post-dose, tissues including liver, spleen, and bone marrow were collected. Base editing was determined by performing targeted deep sequencing analysis at the ALAS1 target site using extracted genomic DNA. Genomic DNA was isolated and fragmented and adapter-ligated using the Nextera DNA Flex Library Prep Kit (Illumina) using the 96-well plate Nextera indexing primers (Illumina), according to the manufacturer's instructions. Library size and concentration was confirmed by Fragment Analyzer (Agilent) and analyzed for whole genome sequencing using an Illumina HiSeq.

SMILES	Diameter (nm) [1] [nm]	PDI [1]	Encapsulation Efficiency (%) [2] [%]	% Editing in Liver (0.05 mpk) (ALAS1 target site) [%]
CC/C=C\CCCCOC(CCC(=O)OCC(COC(=O)CCCCCC(=O)OCCC(CCCC)CCCC)COC(=O)CCC(CCCCCC)OC(=O)NCCN1CCCC1)OCCCC/C=C\CC (centres unmarked) [Compound 7-12, 1-(3-((4,4-bis(((Z)-oct-5-en-1-yl)oxy)butanoyl)oxy)-2-(((4-(((2-(pyrrolidin-1-yl)ethyl)carbamoyl)oxy)decanoyl)oxy)methyl)propyl) 7-(3-butylheptyl) heptanedioate]	69.26	0.11	96.4	1.7
CC/C=C\CCCCOC(CCC(=O)OCC(COC(=O)CCCCCC(=O)OCCC(CCCCC)CCCCC)COC(=O)CCC(CCCCCC)OC(=O)NCCN1CCCC1)OCCCC/C=C\CC (centres unmarked) [Compound 7-13, 1-(3-((4,4-bis(((Z)-oct-5-en-1-yl)oxy)butanoyl)oxy)-2-(((4-(((2-(pyrrolidin-1-yl)ethyl)carbamoyl)oxy)decanoyl)oxy)methyl)propyl) 7-(3-pentyloctyl) heptanedioate]	52.45	0.04	97.3	2.2
CC/C=C\CCCCOC(CCC(=O)OCC(COC(=O)CCCCCC(=O)OCCC(CCCCCC)CCCCCC)COC(=O)CCC(CCCCCC)OC(=O)NCCN1CCCC1)OCCCC/C=C\CC (centres unmarked) [Compound 7-14, 1-(3-((4,4-bis(((Z)-oct-5-en-1-yl)oxy)butanoyl)oxy)-2-(((4-(((2-(pyrrolidin-1-yl)ethyl)carbamoyl)oxy)decanoyl)oxy)methyl)propyl) 7-(3-hexylnonyl) heptanedioate]	59.40	0.09	97.6	0.1
CCCCCCCCOC(CCC(=O)OCC(COC(=O)CCCCCC(=O)OCCC(CCCCC)CCCCC)COC(=O)CCC(CCCCCC)OC(=O)NCCN1CCCC1)OCCCCCCCC (centres unmarked) [Compound 7-15, 1-(3-((4,4-bis(octyloxy)butanoyl)oxy)-2-(((4-(((2-(pyrrolidin-1-yl)ethyl)carbamoyl)oxy)decanoyl)oxy)methyl)propyl) 7-(3-pentyloctyl) heptanedioate]	58.45	0.08	97.9	6.8
CC/C=C\CCCCOC(CCC(=O)OCC(COC(=O)CCCCC(=O)OCCC(CCCCCC)CCCCCC)COC(=O)CCC(CCCCCC)OC(=O)NCCN1CCCC1)OCCCC/C=C\CC (centres unmarked) [Compound 7-16, 3-((4,4-bis(((Z)-oct-5-en-1-yl)oxy)butanoyl)oxy)-2-(((4-(((2-(pyrrolidin-1-yl)ethyl)carbamoyl)oxy)decanoyl)oxy)methyl)propyl (3-hexylnonyl) adipate]	52.55	0.05	98.0	0.7
CCCCCCCCOC(CCC(=O)OCC(COC(=O)CCCCC(=O)OCCC(CCCCCC)CCCCCC)COC(=O)CCC(CCCCCC)OC(=O)NCCN1CCCC1)OCCCCCCCC (centres unmarked) [Compound 7-17, 3-((4,4-bis(octyloxy)butanoyl)oxy)-2-(((4-(((2-(pyrrolidin-1-yl)ethyl)carbamoyl)oxy)decanoyl)oxy)methyl)propyl (3-hexylnonyl) adipate]	57.11	0.09	98.5	1.0
CC/C=C\CCCCOC(CCC(=O)OCC(COC(=O)CCCCCCC(=O)OCCC(CCCC)CCCC)COC(=O)CCC(CCCCCC)OC(=O)NCCN1CCCC1)OCCCC/C=C\CC (centres unmarked) [Compound 7-18, 1-(3-((4,4-bis(((Z)-oct-5-en-1-yl)oxy)butanoyl)oxy)-2-(((4-(((2-(pyrrolidin-1-yl)ethyl)carbamoyl)oxy)decanoyl)oxy)methyl)propyl) 8-(3-butylheptyl) octanedioate]	55.60	0.08	96.1	3.3

Second part, led by results:

Diameter (nm) [1] [nm]	PDI [1]	Encapsulation Efficiency (%) [2] [%]	SMILES	% Editing in Liver (0.05 mpk) (ALAS1 target site) [%]
54.15	0.12	97.2	CC/C=C\CCCCOC(CCC(=O)OCC(COC(=O)CCCCCCC(=O)OCCC(CCCCC)CCCCC)COC(=O)CCC(CCCCCC)OC(=O)NCCN1CCCC1)OCCCC/C=C\CC (centres unmarked) [Compound 7-19, 1-(3-((4,4-bis(((Z)-oct-5-en-1-yl)oxy)butanoyl)oxy)-2-(((4-(((2-(pyrrolidin-1-yl)ethyl)carbamoyl)oxy)decanoyl)oxy)methyl)propyl) 8-(3-pentyloctyl) octanedioate]	1.7
65.85	0.06	97.3	CC/C=C\CCCCOC(CCC(=O)OCC(COC(=O)CCCCCCOC(=O)C(CCCC)CCCCCC)COC(=O)CCC(CCCC)OC(=O)NCCN1CCCC1)OCCCC/C=C\CC (centres unmarked) [Compound 7-22, 3-((4,4-bis(((Z)-oct-5-en-1-yl)oxy)butanoyl)oxy)-2-(((7-((2-butyloctanoyl)oxy)heptanoyl)oxy)methyl)propyl 4-(((2-(pyrrolidin-1-yl)ethyl)carbamoyl)oxy)octanoate]	5.6
57.90	0.12	98.7	CC/C=C\CCCCOC(CCC(=O)OCC(COC(=O)CCCCCCOC(=O)C(CCCC)CCCCCC)COC(=O)CCC(CCCCC)OC(=O)NCCN1CCCC1)OCCCC/C=C\CC (centres unmarked) [Compound 7-23, 3-((4,4-bis(((Z)-oct-5-en-1-yl)oxy)butanoyl)oxy)-2-(((7-((2-butyloctanoyl)oxy)heptanoyl)oxy)methyl)propyl 4-(((2-(pyrrolidin-1-yl)ethyl)carbamoyl)oxy)nonanoate]	1.0
78.75	0.11	97.8	CC/C=C\CCCCOC(CCC(=O)OCC(COC(=O)CCCCCC(=O)OCCC(CCCCC)CCCCC)COC(=O)CCC(CCC)OC(=O)NCCN1CCCC1)OCCCC/C=C\CC (centres unmarked) [Compound 7-25, 1-(3-((4,4-bis(((Z)-oct-5-en-1-yl)oxy)butanoyl)oxy)-2-(((4-(((2-(pyrrolidin-1-yl)ethyl)carbamoyl)oxy)heptanoyl)oxy)methyl)propyl) 7-(3-pentyloctyl) heptanedioate]	0.9
61.25	0.06	96.9	CC/C=C\CCCCOC(CCC(=O)OCC(COC(=O)CCCCCC(=O)OCCC(CCCCC)CCCCC)COC(=O)CCC(CCCCC)OC(=O)NCCN1CCCC1)OCCCC/C=C\CC (centres unmarked) [Compound 7-27, 1-(3-((4,4-bis(((Z)-oct-5-en-1-yl)oxy)butanoyl)oxy)-2-(((4-(((2-(pyrrolidin-1-yl)ethyl)carbamoyl)oxy)nonanoyl)oxy)methyl)propyl) 7-(3-pentyloctyl) heptanedioate]	5.3
71.40	0.10	98.3	CC/C=C\CCCCOC(CCC(=O)OCC(COC(=O)CCCCCC(=O)OCCC(CCCCC)CCCCC)COC(=O)CCC(C)OC(=O)NCCN1CCCC1)OCCCC/C=C\CC (centres unmarked) [Compound 7-30, 1-(3-((4,4-bis(((Z)-oct-5-en-1-yl)oxy)butanoyl)oxy)-2-(((4-(((2-(pyrrolidin-1-yl)ethyl)carbamoyl)oxy)pentanoyl)oxy)methyl)propyl) 7-(3-pentyloctyl) heptanedioate]	0.8
53.30	0.10	96.1	CC/C=C\CCCCOC(CCC(=O)OCC(COC(=O)CCCCCC(=O)OCC(CCCC)CCCCCC)COC(=O)CCC(CCCCCC)OC(=O)NCCN1CCCC1)OCCCC/C=C\CC (centres unmarked) [Compound 7-32, 1-(3-((4,4-bis(((Z)-oct-5-en-1-yl)oxy)butanoyl)oxy)-2-(((4-(((2-(pyrrolidin-1-yl)ethyl)carbamoyl)oxy)decanoyl)oxy)methyl)propyl) 7-(2-butyloctyl) heptanedioate]	0.6
